Consider five compounds from ChEMBL document CHEMBL1150099, “An improved source of bryostatin 10, Bugula neritina from the Gulf of Aomori, Japan” (1995).

Values after ≈ are worked out from the molar mass of the structure shown. Active and inactive are the calls of the source. No cut-off for these calls is given here.

Assay [1] deals with P388. In words: Cytotoxicity against mouse P388 cells. The class given is functional. The settings on record: read-out: ED50 (the source's name).
Assay [2] relates to Echinoidea. In words: Inhibition of fertilization of sea urchin egg at 1 ug/ml. The class given is functional.
The nature of assay [3]: Inhibition of fertilized sea urchin egg cell division. The settings on record: Echinoidea, read-out: ED50 (the source's name). The class given is functional.
Assay [4] deals with Sperm. In words: Inhibition of movement of sea urchin sperm at 1 ug/ml. It is filed as functional, cell-based. Particulars: Echinoidea.
A short description of assay [5]: Increase in ACTH-induced steroidogenesis in bovine adrenocortical cells measured per 10^5 cells. It is filed as functional, Bos taurus.

As to `CCCC(=O)O[C@H](C)[C@H]1C[C@@H]2C/C(=C/C(=O)OC)C[C@@](O)(O2)C(C)(C)/C=C/[C@H]2C/C(=C\C(=O)OC)C[C@@H](C[C@]3(O)O[C@H](C[C@@H](O)CC(=O)O1)C[C@H](OC(=O)C(C)(C)C)C3(C)C)O2`, the EC50 in assay [1] was 0.32 µg/mL (≈ 0.364 µM). Besides, the inhibition (as a rule, the share of the control response that was lost under treatment) in assay [2] came out at 80%.
Regarding `COC(=O)/C=C1\C=C2O[C@@H](C1)C[C@H]([C@@H](C)O)OC(=O)C[C@H](O)C[C@@H]1C[C@H](OC(=O)C(C)(C)C)C(C)(C)[C@](O)(C[C@@H]3C/C(=C/C(=O)OC)C[C@H](/C=C/C2(C)C)O3)O1` [BRYOSTATIN 17], the EC50 in assay [3] came to 0.3 µg/mL (≈ 0.379 µM). The inhibition in assay [2] turned out to be 100%.
Consider `CCC(=O)O[C@H](C)[C@H]1C[C@@H]2C/C(=C/C(=O)OC)C[C@@](O)(O2)C(C)(C)/C=C/[C@H]2C/C(=C\C(=O)OC)C[C@@H](C[C@]3(O)O[C@H](C[C@@H](O)CC(=O)O1)C[C@H](OC(=O)C(C)(C)C)C3(C)C)O2`, for which the EC50 in assay [1] turned out to be 0.52 µg/mL (≈ 0.601 µM). The same compound came in with an inhibition in assay [2] of 80%. Further, the outcome in assay [4] was Active.
As to `COC(=O)/C=C1/C[C@H]2C[C@]3(O)O[C@H](C[C@@H](O)CC(=O)O[C@@H]([C@@H](C)OC(C)=O)C[C@@H]4C/C(=C/C(=O)OC)C[C@@](O)(O4)C(C)(C)/C=C/[C@@H](C1)O2)C[C@H](OC(=O)C(C)(C)C)C3(C)C`, the EC50 in assay [1] was 0.44 µg/mL (≈ 0.517 µM). This compound also showed an inhibition in assay [2] of 80%.
Turning to `COC(=O)/C=C1/C[C@H]2C[C@]3(O)O[C@H](C[C@@H](O)CC(=O)O[C@@H]([C@@H](C)O)C[C@@H]4C/C(=C\C(=O)OC)C[C@@](O)(O4)C(C)(C)/C=C/[C@@H](C1)O2)C[C@H](OC(=O)C(C)(C)C)C3(C)C` [BRYOSTATIN 10], the EC50 in assay [1] is 0.0018 µg/mL (≈ 0.00223 µM); in assay [3], 0.16 µg/mL (≈ 0.198 µM). Further, the Activity in assay [5] is 1141 pmol/h.
